This is an account of results in patent US20240360194A1, “New Peptides as Potent and Selective GIP Receptor Agonists” (Sanofi, priority 2021, published 2024).

≈ marks a conversion by molar mass, not a printed value. Like-named read-outs stand apart in the source and are kept apart here. Some results are limits rather than exact numbers.

The target of one data set is T1, human GIP receptor (Homo sapiens, UniProt P48546).
T1 construct: human adipocytes endogenously expressing the human GIP receptor; host or cells: human preadipocytes (Lonza) differentiated to adipocytes
T1 sequence (P48546 22-466): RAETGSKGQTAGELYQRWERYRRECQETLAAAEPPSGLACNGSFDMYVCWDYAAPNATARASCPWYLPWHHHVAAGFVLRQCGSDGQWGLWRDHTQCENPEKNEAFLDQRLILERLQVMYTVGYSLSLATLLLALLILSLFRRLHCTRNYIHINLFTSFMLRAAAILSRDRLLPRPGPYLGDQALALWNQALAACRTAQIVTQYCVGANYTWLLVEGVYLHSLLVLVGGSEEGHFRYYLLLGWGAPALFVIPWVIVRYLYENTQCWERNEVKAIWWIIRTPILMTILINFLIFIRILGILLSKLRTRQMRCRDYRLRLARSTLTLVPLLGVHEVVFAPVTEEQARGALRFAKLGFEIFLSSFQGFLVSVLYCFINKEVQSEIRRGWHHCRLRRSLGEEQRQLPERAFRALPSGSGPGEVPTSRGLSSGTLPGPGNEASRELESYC
As to the kind of experiment: In vitro cellular cAMP assay for GIP receptor efficacy (human adipocytes). Format: cell-based. In outline:
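cAMP is read by HTRF (665/620 nm ratio, 1 h after reagents in lysis buffer) following 30 min compound exposure at room temperature. Cells are human preadipocyte-derived adipocytes, differentiated 6 days with insulin, dexamethasone, IBMX (200 μM), PPARγ agonist and L-thyroxine, seeded 5000 per well.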
In general terms: Cyclic AMP is a second messenger, typically raised through Gs and lowered through Gi signalling.

In data set [1] the target is T2, human GLP-1 receptor (hGLP-1R) (Homo sapiens, UniProt P43220). Briefly: Binding assay, displacement of [125I]GLP-1 from HEK-293 membranes over-expressing GLP-1R (SPA). The settings on record: [125I]GLP-1 displacement. On the procedure:
(1) Preparation of Membranes from HEK-293 Cells Over-Expressing GIPR or GLP-1R
HEK-293 cells recombinantly over-expressing GIPR or GLP-1R were grown to 50% confluency, washed with warm 1×PBS (Gibco) and detached in HEPES/EDTA-buffer (100 mM HEPES pH 7.5, 5 mM EDTA). Cells were harvested by centrifugation at 4° C. and 3000×g and the pellets were stored at −80° C. until further processing.
After thawing on ice, pellets were resuspended in HEPES/EDTA-buffer and homogenized on ice for 1 min using Ultra-Turray T25. After subsequent sonification the cell debris was removed by centrifugation at 1000×g and 4° C. Supernatants were then ultra-centrifuged at 100000×g and 4° C. under vacuum for 30 min. Pellets were resuspended in HEPES/EDTA/NaCl-buffer (20 mM HEPES, 1 mM EDTA, 150 mM NaCl; add 1 Complete Mini Protease inhibitor cocktail to 10 ml buffer) and protein content was determined via BCA-Protein assay.
(2) Measurement of Binding Activity of Test Compounds to Human GIPR or GLP-1R
For orientation: Loss of bound radioactivity is the signal in a displacement assay; it reports binding, not function.

Data set [2] deals with T2, human GLP-1 receptor (hGLP-1R). Briefly: In vitro cellular cAMP assay for GLP-1 receptor efficacy (HEK-293 cell line over-expressing receptor). It is filed as cell-based. The settings on record: HEK-293, 0.1% BSA.
The target of data set [3] is T3, human GIP receptor (hGIPR) (Homo sapiens, UniProt P48546).
T3 sequence (P48546 22-466): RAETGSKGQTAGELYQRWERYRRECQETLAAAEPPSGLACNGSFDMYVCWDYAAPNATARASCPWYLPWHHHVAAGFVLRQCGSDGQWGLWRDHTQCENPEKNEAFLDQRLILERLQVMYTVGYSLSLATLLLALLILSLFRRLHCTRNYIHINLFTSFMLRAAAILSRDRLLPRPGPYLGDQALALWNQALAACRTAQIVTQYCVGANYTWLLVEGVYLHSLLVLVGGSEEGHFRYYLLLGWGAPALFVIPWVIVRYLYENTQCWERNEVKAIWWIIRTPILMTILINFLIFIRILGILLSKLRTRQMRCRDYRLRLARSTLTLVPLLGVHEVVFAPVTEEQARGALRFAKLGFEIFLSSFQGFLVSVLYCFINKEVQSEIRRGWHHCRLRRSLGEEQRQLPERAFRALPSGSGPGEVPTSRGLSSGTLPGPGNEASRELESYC
Briefly: Binding assay, displacement of [125I]GIP from HEK-293 membranes over-expressing GIPR (SPA). The settings on record: [125I]GIP displacement. In a few lines:
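Membranes from HEK-293 cells over-expressing human GIPR or GLP-1R, isolated by homogenising, sonicating and ultracentrifuging at 100000×g into HEPES/EDTA/NaCl buffer with protease inhibitors, were used for binding.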

Data set [4] can be described thus: Solubility assessment (UHPLC-UV of supernatant, target 10 mg/ml). It is filed as physicochemical. The settings on record: read-out: Soluble amount. In a few lines: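 Peptides at 10 mg/ml (purity-corrected) in 100 mM phosphate pH 7.4, optionally with 2.7 mg/ml m-cresol; gentle agitation 1 h, then 5° C. overnight (24 h). Supernatant after 15 min centrifugation at 2500 RCF quantified by UHPLC-UV, with sequence-based extinction coefficients.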

Data set [5] deals with T3, human GIP receptor (hGIPR). As to the kind of experiment: In vitro cellular cAMP assay for GIP receptor efficacy (HEK-293 cell line over-expressing receptor). It is filed as cell-based. The settings on record: EC50 hGIPR 0.1% BSA, HEK-293, 0.1% BSA.

T2 sequence (P43220 24-463): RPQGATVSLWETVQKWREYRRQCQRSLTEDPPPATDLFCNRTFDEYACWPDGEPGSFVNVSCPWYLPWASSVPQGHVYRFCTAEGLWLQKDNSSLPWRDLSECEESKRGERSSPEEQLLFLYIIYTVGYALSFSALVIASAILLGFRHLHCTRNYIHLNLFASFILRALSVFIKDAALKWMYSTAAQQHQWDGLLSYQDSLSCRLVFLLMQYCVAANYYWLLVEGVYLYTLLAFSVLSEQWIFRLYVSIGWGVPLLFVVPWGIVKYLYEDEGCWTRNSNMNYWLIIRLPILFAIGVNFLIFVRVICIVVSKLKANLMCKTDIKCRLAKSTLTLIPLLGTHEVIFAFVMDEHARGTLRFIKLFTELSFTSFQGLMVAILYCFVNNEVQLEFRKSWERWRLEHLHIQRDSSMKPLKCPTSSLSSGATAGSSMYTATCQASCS

As usually defined, the EC50 is the midpoint of the concentration-response curve. The Emax is the greatest response seen or fitted, relative to the assay's reference. Broadly, the IC50 is the concentration that gives 50% inhibition. A high value points to a need for much substance. As to `CC[C@H](C)[C@H](NC(=O)[C@H](CCCNC(=N)N)NC(=O)[C@H](CC(=O)O)NC(=O)[C@H](CCCCNC(=O)CNC(=O)CNC(=O)CNC(=O)CC[C@H](NC(=O)CCCCCCCCCCCCCCCCC(=O)O)C(=O)O)NC(=O)C(C)(C)NC(=O)[C@@H](NC(=O)[C@H](CO)NC(=O)[C@H](CC(C)C)NC(=O)[C@H](CC(=O)O)NC(=O)[C@H](CO)NC(=O)[C@@H](NC(=O)[C@H](Cc1ccccc1)NC(=O)[C@@H](NC(=O)CNC(=O)[C@H](CCC(=O)O)NC(=O)C(C)(C)NC(=O)[C@@H](N)Cc1ccc(O)cc1)[C@@H](C)O)[C@@H](C)CC)[C@@H](C)CC)C(=O)N[C@@H](Cc1c[nH]cn1)C(=O)N[C@@H](CCC(N)=O)C(=O)NC(C)(C)C(=O)N[C@@H](CCC(=O)O)C(=O)N[C@@H](Cc1ccccc1)C(=O)N[C@H](C(=O)N[C@@H](CCC(=O)O)C(=O)N[C@@H](Cc1c[nH]c2ccccc12)C(=O)N[C@@H](CC(C)C)C(=O)N[C@@H](CC(C)C)C(=O)N[C@@H](C)C(=O)N[C@@H](CCC(N)=O)C(=O)N[C@@H](CCCNC(=N)N)C(=O)NCC(N)=O)[C@@H](C)CC` [SEQ ID NO: 7, H2N-Y-Aib-E-G-T-F-I-S-D-L-S-I-Aib-K[{Gly}3-gGlu-C18OH]-D-R-I-H-Q-Aib-E-F-I-E-W-L-L-A-Q-R-G-NH2], the EC50 was 0.4 nM on human GIP receptor (read-out: hGIPR EC50), greater than 10 nM in data set [2] and 0.00964 nM in data set [5]. Moreover, the Emax on human GIP receptor (read-out: hGIPR Emax) was 121%. In addition, the IC50 in data set [1] came to 106 nM; in data set [3] it was 0.1 nM. In addition, the solubility at 24 h is 9100 µg/mL (≈ 2160 µM) in data set [4] (100 mM phosphate buffer pH 7.4 (solubility buffer system A), pH 7.4, Solubility buffer system A: 100 mM phosphate buffer pH 7.4) and 4000 µg/mL (≈ 949 µM) in data set [4] (pH 7.4, Solubility buffer system C: 100 mM phosphate buffer pH 7.4, 2.7 mg/ml m-cresol).
On to `CC[C@H](C)[C@H](NC(=O)[C@H](Cc1ccccc1)NC(=O)[C@H](CCC(=O)O)NC(=O)[C@H](CCC(=O)O)NC(=O)[C@H](CCC(N)=O)NC(=O)[C@H](Cc1c[nH]cn1)NC(=O)[C@@H](NC(=O)[C@H](CCCNC(=N)N)NC(=O)[C@H](CC(=O)O)NC(=O)[C@H](CCCCNC(=O)COCCOCCNC(=O)COCCOCCNC(=O)CC[C@H](NC(=O)CCCCCCCCCCCCCCCCC(=O)O)C(=O)O)NC(=O)C(C)(C)NC(=O)[C@@H](NC(=O)[C@H](CO)NC(=O)[C@H](CC(C)C)NC(=O)[C@H](CC(=O)O)NC(=O)[C@H](CO)NC(=O)[C@@H](NC(=O)[C@H](Cc1ccccc1)NC(=O)[C@@H](NC(=O)CNC(=O)[C@H](CCC(=O)O)NC(=O)C(C)(C)NC(=O)[C@@H](N)Cc1ccc(O)cc1)[C@@H](C)O)[C@@H](C)CC)[C@@H](C)CC)[C@@H](C)CC)C(=O)N[C@@H](CCC(=O)O)C(=O)N[C@@H](Cc1c[nH]c2ccccc12)C(=O)N[C@@H](CC(C)C)C(=O)N[C@@H](CC(C)C)C(=O)N[C@@H](C)C(=O)N[C@@H](CCC(N)=O)C(=O)N[C@@H](CCCNC(=N)N)C(=O)NCC(=O)O` [SEQ ID NO: 13, H2N-Y-Aib-E-G-T-F-I-S-D-L-S-I-Aib-K[{AEEA}2-gGlu-C18OH]-D-R-I-H-Q-E-E-F-I-E-W-L-L-A-Q-R-G-OH], for which the IC50 was 116 nM in data set [1] and 0.9 nM in data set [3]. The EC50 in data set [5] was 0.0285 nM.
